Results from US12486218B2, “Compounds advantageous in the treatment of central nervous system diseases and disorders” (AurimMed Pharma, Inc., priority 2008, dated 2025).

Key:
mice [1] = test: 6 Hz (minimal clonic seizure) model, mice i.p.; format: in vivo; conditions: for 6 Hz (32 mA), fraction of animals: mice i.p.; for activity in the 6 Hz (minimal clonic seizure) model: mice
SMN2 promoter = SMN2 promoter β-lactamase reporter assay in NSC34 motor neuron-like cells; format: cell-based; conditions: for Promoter (SMN2 promoter test, summary YES/NO): Table 13 summary; for SMN2 promoter activity: treatment for 19 hours at a concentration of 1 μM
Protocol: FIG. 30 illustrates a screen for SMN2 expression of a number of compounds described herein.
SMN2 promoter activity was measured using NSC34 motor neuron-like cells stably transfected with a β-lactamase (BLA) reporter gene under the control of a 3.4-kilobase fragment of the SMN2 promoter. D156844 was used as a positive control for this assay.

[2] = tested on: inclusion of exon 7 in SMN2 mRNAs; test: Exon 7 inclusion BLA reporter assay in NSC34 cell line; format: cell-based; conditions: for effect on the inclusion of exon 7 in SMN2 transcripts / exon 7 test, particularly strong hits: NSC34 exon 7 BLA reporter cells; for Exon 7 inclusion (summary YES/NO): Table 13 summary
Description: To measure changes in the inclusion of exon 7 in SMN2 mRNAs, another NSC34 cell line was used that stably transfected with a reporter construct which expresses BLA when exon 7 is included in the SMN2 minigene mRNAs. 5-(N-ethyl-N-isopropyl)-amiloride (EIPA) was used as a positive control for this assay. Data for tis assay is illustrated in FIG. 30.

mice [3] = test: Maximal Electroshock Seizure (MES) test, mice i.p.; format: in vivo; conditions: for MES, fraction of animals: mice i.p.; for activity in the MES test: mice
mice [4] = test: Minimal motor impairment (MID50), mice i.p.; conditions: mice i.p.
Protocol: The animal testing was performed according to methods known in the relevant art.

mice [5] = test: Subcutaneous Metrazol Seizure threshold (s.c. MET) test, mice i.p.; format: in vivo; conditions: for activity in the s.c. MET test: mice, at 300 mg/kg; for s.c. MET, fraction of animals: mice i.p.
[6] = tested on: rat dopaminergic N27 cells; test: N27 protection assay against oxidative stress (H2O2 or MPP+; MTT and LDH); format: cell-based; conditions: drug 24 hours before 200 μM H2O2 or 640 μM MPP+
Description: FIGS. 20A-25D data are shown illustrating neuroprotective and neuroregenerative effects observed in rat dopaminergic N27 cells. Rat dopaminergic N27 cells are commonly used in in vitro and in vivo model systems for studying Parkinson's disease. Parkinson's disease is a neurodegenerative disorder of the central nervous system that affects more than 6 million people worldwide. The motor symptoms of Parkinson's disease result from the death of dopamine generating cells in the substantia nigra, a region of the midbrain.
The N27 rat dopaminergic neuron cell line was harvested from E12 rat mesencephalic tissue and was transfected with SV40 to immortalize the cell line. The N27 cell line, when injected into the striata of 6-hydroxydopamine-lesioned rats (an animal model of PD) caused a time-dependent improvement in neurological deficits. This immortalized cell line has been carefully characterized in studies of dopamine biosynthesis, neurotoxicity and used as a dopaminergic neuron model studies.
The N27 in vitro Parkinson's disease model included a test of cell viability and cell toxicity in response to exposure to oxidative stress (e.g., either 200 μM H2O2 or 640 μM MPP+).
Cell viability was tested using the MTT assay. The MTT assay is a colorimetric analysis based on the activities of mitochondrial NAD(P)H-dependent cellular oxidoreductase enzymes. These enzymes are capable of reducing the tetrazolium dye, MTT [3-(4,5-dimethylthiazol-2-yl)-2,5-diphenyltetrazolium] bromide, to an insoluble formazan (purple). […] More viable cells equal more accumulation of the insoluble formazan dye.
Cell toxicity was tested using the […] (LDH) assay. Cells that are stressed secrete LDH. In general, the more cells are stressed, the LDH they secrete into their media. The LDH assay is a reliable colorimetric assay to measure quantitatively the […] (LDH) that is released into the cell culture media from damaged cells as a biomarker for cytotoxicity and cytolysis.
FIGS. 20A-25D present data from two types of assays: protection and recovery assays. In the protection assays, the drug candidate was applied to the cells at various concentrations for 24 hours, followed by the exposure to oxidative stress (either 200 μM H2O2 or 640 μM MPP+) for measuring neuroprotective effect. H2O2 provides a broad measure of oxidative stress, while MPP+ gives a more specific oxidative stress to dopaminergic neurons.
The protection assay results are shown in panels A-C of FIGS. 20-25 In the recovery assays, the cells were first damaged by exposure to H2O2 and then various concentrations of the drug were applied to the cells. The results for the recovery assays are shown the D panels of FIGS. 20-25.

CC(CC(N)=O)c1ccc(-c2ccccc2)c(F)c1 (centres unmarked) [Compound AX, 3-(2-Fluoro-biphenyl-4-yl)butyramide]
6 Hz (32 mA), fraction of animals (mice [1]; 100 mg/kg @ 0.5 hr): 3/4 | 6 Hz (32 mA), fraction of animals (mice [1]; 100 mg/kg @ 1.0 hr): 2/4 | 6 Hz (32 mA), fraction of animals (mice [1]; 100 mg/kg @ 2.0 hr): 1/4 @ | activity in the 6 Hz (minimal clonic seizure) model (mice [1]; at 100 mg/kg): activity | SMN2 promoter assay, particularly strong hits (SMN2 promoter; NSC34 BLA reporter cells): particularly strong hits | Promoter (SMN2 promoter test, summary YES/NO) (SMN2 promoter): YES | SMN2 promoter activity (SMN2 promoter): increased SMN2 promoter activity | effect on the inclusion of exon 7 in SMN2 transcripts [2]: positive effect on the inclusion of exon 7 | exon 7 test, particularly strong hits [2]: Particularly strong hits | Exon 7 inclusion (summary YES/NO) [2]: YES

C[C@H](CC(N)=O)c1ccccc1 [Compound C, (R)-3-Phenylbutyramide]
MES, fraction of animals (mice [3]; 100 mg/kg @ 0.5 hr): 1/6 @0.5 hr, | activity in the MES test (mice [3]; at 100 mg/kg): activity | MID50, fraction of animals (mice [4]; 100 mg/kg @ 0.5 hr): 1/8 @0.5 hr

COc1ccc(C(CC(N)=O)C2CC2)cc1C (centres unmarked) [AN, 3-Cyclopropyl-3-(4-methoxy-3-methyl-phenyl)propionamide]
MES, fraction of animals (mice [3]; 100 mg/kg @ 0.25 hr): 1/3 @ | activity in the MES test (mice [3]; at 100 mg/kg): activity | 6 Hz (32 mA), fraction of animals (mice [1]; 100 mg/kg @ 0.25 hr): 4/4 | 6 Hz (32 mA), fraction of animals (mice [1]; 100 mg/kg @ 0.5 hr): 3/4 | 6 Hz (32 mA), fraction of animals (mice [1]; 100 mg/kg @ 1.0 hr): 1/4 @ | activity in the 6 Hz (minimal clonic seizure) model (mice [1]; at 100 mg/kg): activity | Promoter (SMN2 promoter test, summary YES/NO) (SMN2 promoter): YES | SMN2 promoter activity (SMN2 promoter): increased SMN2 promoter activity | effect on the inclusion of exon 7 in SMN2 transcripts [2]: positive effect on the inclusion of exon 7

COCCCNC(=O)CC(C)c1ccc(OC(F)(F)F)cc1 (centres unmarked) [BM, N-(3-Methoxy-propyl)-3-(4-trifluoromethoxy-phenyl)-butyramide]
activity in the MES test (mice [3]; at 300 mg/kg): activity | activity in the s.c. MET test (mice [5]): activity | 6 Hz (32 mA), fraction of animals (mice [1]; 100 mg/kg @ 0.5 hr): 1/4 @ 0.5 hr | neuroprotective effect against H2O2 and MPP+ oxidative stresses (MTT and LDH assays) [6]: statistically significant, dose-dependent neuroprotection | SMN2 promoter activity (SMN2 promoter): increased SMN2 promoter activity

Cc1nc(C)c(C(C)CC(N)=O)cc1C(C)CC(N)=O (mixture of isomers) [DA]
neuroprotective effect against H2O2 and MPP+ oxidative stresses (MTT and LDH assays) [6]: statistically significant, dose-dependent neuroprotection | Promoter (SMN2 promoter test, summary YES/NO) (SMN2 promoter): YES | SMN2 promoter activity (SMN2 promoter): increased SMN2 promoter activity

NC(=O)CC1(c2ccc(Cl)cc2)CCCC1 [AJ]
MES, fraction of animals (mice [3]; 100 mg/kg @ 0.25 hr): 3/3 | MES, fraction of animals (mice [3]; 100 mg/kg @ 1.0 hr): 1/3 | s.c. MET, fraction of animals (mice [5]; 300 mg/kg @ 0.5 hrs): 1/1 @ 0.5 hrs, | Promoter (SMN2 promoter test, summary YES/NO) (SMN2 promoter): YES | SMN2 promoter activity (SMN2 promoter): increased SMN2 promoter activity | effect on the inclusion of exon 7 in SMN2 transcripts [2]: positive effect on the inclusion of exon 7 | exon 7 test, particularly strong hits [2]: Particularly strong hits | Exon 7 inclusion (summary YES/NO) [2]: YES

CC(O)(CC(N)=O)c1cccc(OC(F)(F)F)c1 (racemic) [CD]
s.c. MET, fraction of animals (mice [5]; 30 mg/kg @ 0.5 hr): 3/5@ 0.50 | s.c. MET, fraction of animals (mice [5]; 100 mg/kg @ 0.5 hr): 1/1 @ 0.5, | s.c. MET, fraction of animals (mice [5]; 100 mg/kg @ 4.0 hr): 1/1 @ 0.5, | MID50, fraction of animals (mice [4]; 100 mg/kg @ 0.5 hr): 1/8 @ 0.50 hr, | MID50, fraction of animals (mice [4]; 300 mg/kg @ 0.5 hr): 4/4 @ 0.5 | MID50, fraction of animals (mice [4]; 300 mg/kg @ 4.0 hr): hr & 2/2

CC(CC(=O)N(C)C)c1ccc(OC(F)(F)F)cc1 (centres unmarked) [BD, N,N-Dimethyl-3-(4-trifluoromethoxy-phenyl)-butyramide]
MES, fraction of animals (mice [3]; 100 mg/kg @ 0.5 hr): 1/1 @ | activity in the MES test (mice [3]; at 100 mg/kg): activity | activity in the s.c. MET test (mice [5]): activity | 6 Hz (32 mA), fraction of animals (mice [1]; 100 mg/kg @ 2.0 hr): 2/4 @ 0.5, | MID50, fraction of animals (mice [4]; 100 mg/kg @ 0.5 hr): 4/8 @ 0.5 hrs,

COc1ccc2cc(C(C)CC(N)=O)ccc2c1 (centres unmarked) [Compound AE, 3-(6-Methoxynaphthalen-2-yl)-butyramide]
activity in the MES test (mice [3]; at 100 mg/kg): activity | 6 Hz (32 mA), fraction of animals (mice [1]; 200 mg/kg @ 0.25 hr): 2/4 @ 0.25 hrs | activity in the 6 Hz (minimal clonic seizure) model (mice [1]; at 200 mg/kg): activity | neuroprotective effect against H2O2 and MPP+ oxidative stresses (MTT and LDH assays) [6]: statistically significant, dose-dependent neuroprotection
